From patent US20240158446A1, “CYCLIC COMPOUND HAVING SELECTIVE INHIBITORY ACTION ON KRAS OVER HRAS AND NRAS” (CHUGAI SEIYAKU KABUSHIKI KAISHA, priority 2021, published 2024)
*1 amine or outer side, *2 acyl side, *3 side chain or, on linkers, in order; H or OH if unused. Where a SMILES comes first, the peptide text is derived from it. Bridges are numbered along the chain shown (N, C = ends). [ ]: non-standard residue; d: D form. The star is where a group is joined. X25 = O=C([C@H](Cc1ccc(C(F)(F)F)cc1)N(CCC(F)(F)F)[*:1])[*:2]; X22 = O=C([C@H](Cc1ccc(C(F)(F)F)cc1)N(CC1CCCC1)[*:1])[*:2]; hPhe(3-Cl-4-CF3) = N[C@@H](CCc1ccc(C(F)(F)F)c(Cl)c1)C(=O)O; X37 = O=C([C@H](Cc1ccc(C(F)(F)F)cc1)N(CC1CCC1)[*:1])[*:2]; X40 = CC(C)CN([C@@H](Cc1ccc(C(F)(F)F)cc1)C(=O)[*:2])[*:1]; X23 = C=CCCN([C@@H](Cc1ccc(C(F)(F)F)cc1)C(=O)[*:2])[*:1]; X27 = O=C([C@H](Cc1ccc(C(F)(F)F)cc1)N(CC1CC1)[*:1])[*:2]; X31 = COCCCN([C@@H](Cc1ccc(C(F)(F)F)cc1)C(=O)[*:2])[*:1]; X17 = CCCCN([C@@H](Cc1ccc(C(F)(F)F)cc1)C(=O)[*:2])[*:1]; X32 = COCCN([C@@H](Cc1ccc(C(F)(F)F)cc1)C(=O)[*:2])[*:1]; X38 = C#CCN([C@@H](Cc1ccc(C(F)(F)F)cc1)C(=O)[*:2])[*:1]; X5 = C=CCN([C@@H](Cc1ccc(C(F)(F)F)cc1)C(=O)[*:2])[*:1]; NMeGly(cPent) = CN[C@H](C(=O)O)C1CCCC1; NMeD = CN[C@@H](CC(=O)O)C(=O)O; NMeL = CN[C@@H](CC(C)C)C(=O)O; Morpholide = C1CN(*)CCO1; NMeA = CN[C@@H](C)C(=O)O; Ac5c = NC1(C(=O)O)CCCC1; Aze = O=C(O)[C@@H]1CCN1; Sar = CNCC(=O)O

Assays:
[1] = biological target: GDP-bound KRAS wild-type protein (Homo sapiens, UniProt P01116); experiment: Binding to KRAS by surface plasmon resonance (SPR), Single Cycle Kinetics; conditions: SPR Single Cycle Kinetics, GDP-bound KRAS wild-type protein, 1:1 binding model; read-out: KRAS KD
Chain of GDP-bound KRAS wild-type protein (P01116 whole entry): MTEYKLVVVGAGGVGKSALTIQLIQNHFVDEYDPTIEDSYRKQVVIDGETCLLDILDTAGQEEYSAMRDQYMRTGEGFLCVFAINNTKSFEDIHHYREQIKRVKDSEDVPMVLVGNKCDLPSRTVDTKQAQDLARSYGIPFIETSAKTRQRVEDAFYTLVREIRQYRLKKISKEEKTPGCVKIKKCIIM

[2] = biological target: GDP-bound NRAS wild-type protein (Homo sapiens, UniProt P01111); experiment: Binding to NRAS by surface plasmon resonance (SPR), Single Cycle Kinetics; conditions: SPR, GDP-bound NRAS wild-type protein vs GDP-bound KRAS wild-type protein
Chain of GDP-bound NRAS wild-type protein (P01111 whole entry): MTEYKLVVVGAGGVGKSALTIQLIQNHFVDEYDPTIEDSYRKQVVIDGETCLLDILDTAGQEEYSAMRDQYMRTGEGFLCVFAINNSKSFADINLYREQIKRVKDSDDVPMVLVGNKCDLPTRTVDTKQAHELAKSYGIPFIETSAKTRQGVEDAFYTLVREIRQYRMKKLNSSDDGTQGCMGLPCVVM

[3] = biological target: GDP-bound HRAS wild-type protein (Homo sapiens, UniProt P01112); experiment: Binding to HRAS by surface plasmon resonance (SPR), Single Cycle Kinetics; conditions: SPR, GDP-bound HRAS wild-type protein vs GDP-bound KRAS wild-type protein
Chain of GDP-bound HRAS wild-type protein (P01112 whole entry): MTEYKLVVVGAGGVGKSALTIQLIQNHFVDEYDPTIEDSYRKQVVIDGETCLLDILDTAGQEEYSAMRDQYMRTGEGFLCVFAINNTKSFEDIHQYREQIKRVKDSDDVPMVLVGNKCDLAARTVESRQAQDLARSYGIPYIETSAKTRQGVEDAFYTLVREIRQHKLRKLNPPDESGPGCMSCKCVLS

SMILES | Kd [1] [pM] | NRAS/KRAS (ratio of KD value for NRAS to KD value for KRAS) [2] | HRAS/KRAS (ratio of KD value for HRAS to KD value for KRAS) [3]
CC[C@H](C)[C@@H]1NC(=O)[C@H](CC(C)C)N(C)C(=O)C[C@@H](C(=O)N2CCOCC2)N(C)C(=O)[C@H](C2CCCC2)N(C)C(=O)C2(CCCC2)NC(=O)[C@@H]2CCCN2C(=O)[C@H](CCc2ccc(C(F)(F)F)c(Cl)c2)NC(=O)CN(C)C(=O)[C@H](Cc2ccc(C(F)(F)F)cc2)N(CC2CC2)C(=O)[C@@H]2CCN2C(=O)[C@H](C)N(C)C1=O [PP0108] ([NMeL]I[NMeA][Aze][X27][Sar][hPhe(3-Cl-4-CF3)]P[Ac5c][NMeGly(cPent)][NMeD]-Morpholide; lactam N-11) | 200 | C (A compound having a KD ratio of 0.1 or more and less than 3 is denoted as C) | C (A compound having a KD ratio of 0.1 or more and less than 3 is denoted as C)
CC[C@H](C)[C@@H]1NC(=O)[C@H](CC(C)C)N(C)C(=O)C[C@@H](C(=O)N2CCOCC2)N(C)C(=O)[C@H](C2CCCC2)N(C)C(=O)C2(CCCC2)NC(=O)[C@@H]2CCCN2C(=O)[C@H](CCc2ccc(C(F)(F)F)c(Cl)c2)NC(=O)CN(C)C(=O)[C@H](Cc2ccc(C(F)(F)F)cc2)N(CC2CCC2)C(=O)[C@@H]2CCN2C(=O)[C@H](C)N(C)C1=O [PP0109] ([NMeL]I[NMeA][Aze][X37][Sar][hPhe(3-Cl-4-CF3)]P[Ac5c][NMeGly(cPent)][NMeD]-Morpholide; lactam N-11) | 1300 | C (A compound having a KD ratio of 0.1 or more and less than 3 is denoted as C) | B (a compound having 3 or more and less than 10 is denoted as B)
CC[C@H](C)[C@@H]1NC(=O)[C@H](CC(C)C)N(C)C(=O)C[C@@H](C(=O)N2CCOCC2)N(C)C(=O)[C@H](C2CCCC2)N(C)C(=O)C2(CCCC2)NC(=O)[C@@H]2CCCN2C(=O)[C@H](CCc2ccc(C(F)(F)F)c(Cl)c2)NC(=O)CN(C)C(=O)[C@H](Cc2ccc(C(F)(F)F)cc2)N(CC2CCCC2)C(=O)[C@@H]2CCN2C(=O)[C@H](C)N(C)C1=O [PP0110] ([NMeL]I[NMeA][Aze][X22][Sar][hPhe(3-Cl-4-CF3)]P[Ac5c][NMeGly(cPent)][NMeD]-Morpholide; lactam N-11) | 4000 | C (A compound having a KD ratio of 0.1 or more and less than 3 is denoted as C) | B (a compound having 3 or more and less than 10 is denoted as B)
C=CCN1C(=O)[C@@H]2CCN2C(=O)[C@H](C)N(C)C(=O)[C@H]([C@@H](C)CC)NC(=O)[C@H](CC(C)C)N(C)C(=O)C[C@@H](C(=O)N2CCOCC2)N(C)C(=O)[C@H](C2CCCC2)N(C)C(=O)C2(CCCC2)NC(=O)[C@@H]2CCCN2C(=O)[C@H](CCc2ccc(C(F)(F)F)c(Cl)c2)NC(=O)CN(C)C(=O)[C@@H]1Cc1ccc(C(F)(F)F)cc1 [PP0114] ([NMeL]I[NMeA][Aze][X5][Sar][hPhe(3-Cl-4-CF3)]P[Ac5c][NMeGly(cPent)][NMeD]-Morpholide; lactam N-11) | 160 | C (A compound having a KD ratio of 0.1 or more and less than 3 is denoted as C) | C (A compound having a KD ratio of 0.1 or more and less than 3 is denoted as C)
C=CCCN1C(=O)[C@@H]2CCN2C(=O)[C@H](C)N(C)C(=O)[C@H]([C@@H](C)CC)NC(=O)[C@H](CC(C)C)N(C)C(=O)C[C@@H](C(=O)N2CCOCC2)N(C)C(=O)[C@H](C2CCCC2)N(C)C(=O)C2(CCCC2)NC(=O)[C@@H]2CCCN2C(=O)[C@H](CCc2ccc(C(F)(F)F)c(Cl)c2)NC(=O)CN(C)C(=O)[C@@H]1Cc1ccc(C(F)(F)F)cc1 [PP0115] ([NMeL]I[NMeA][Aze][X23][Sar][hPhe(3-Cl-4-CF3)]P[Ac5c][NMeGly(cPent)][NMeD]-Morpholide; lactam N-11) | 210 | C (A compound having a KD ratio of 0.1 or more and less than 3 is denoted as C) | C (A compound having a KD ratio of 0.1 or more and less than 3 is denoted as C)
C#CCN1C(=O)[C@@H]2CCN2C(=O)[C@H](C)N(C)C(=O)[C@H]([C@@H](C)CC)NC(=O)[C@H](CC(C)C)N(C)C(=O)C[C@@H](C(=O)N2CCOCC2)N(C)C(=O)[C@H](C2CCCC2)N(C)C(=O)C2(CCCC2)NC(=O)[C@@H]2CCCN2C(=O)[C@H](CCc2ccc(C(F)(F)F)c(Cl)c2)NC(=O)CN(C)C(=O)[C@@H]1Cc1ccc(C(F)(F)F)cc1 [PP0116] ([NMeL]I[NMeA][Aze][X38][Sar][hPhe(3-Cl-4-CF3)]P[Ac5c][NMeGly(cPent)][NMeD]-Morpholide; lactam N-11) | 270 | C (A compound having a KD ratio of 0.1 or more and less than 3 is denoted as C) | C (A compound having a KD ratio of 0.1 or more and less than 3 is denoted as C)
CC[C@H](C)[C@@H]1NC(=O)[C@H](CC(C)C)N(C)C(=O)C[C@@H](C(=O)N2CCOCC2)N(C)C(=O)[C@H](C2CCCC2)N(C)C(=O)C2(CCCC2)NC(=O)[C@@H]2CCCN2C(=O)[C@H](CCc2ccc(C(F)(F)F)c(Cl)c2)NC(=O)CN(C)C(=O)[C@H](Cc2ccc(C(F)(F)F)cc2)N(CCC(F)(F)F)C(=O)[C@@H]2CCN2C(=O)[C@H](C)N(C)C1=O [PP0117] ([NMeL]I[NMeA][Aze][X25][Sar][hPhe(3-Cl-4-CF3)]P[Ac5c][NMeGly(cPent)][NMeD]-Morpholide; lactam N-11) | 190 | B (a compound having 3 or more and less than 10 is denoted as B) | B (a compound having 3 or more and less than 10 is denoted as B)
CC[C@H](C)[C@@H]1NC(=O)[C@H](CC(C)C)N(C)C(=O)C[C@@H](C(=O)N2CCOCC2)N(C)C(=O)[C@H](C2CCCC2)N(C)C(=O)C2(CCCC2)NC(=O)[C@@H]2CCCN2C(=O)[C@H](CCc2ccc(C(F)(F)F)c(Cl)c2)NC(=O)CN(C)C(=O)[C@H](Cc2ccc(C(F)(F)F)cc2)N(CCOC)C(=O)[C@@H]2CCN2C(=O)[C@H](C)N(C)C1=O [PP0118] ([NMeL]I[NMeA][Aze][X32][Sar][hPhe(3-Cl-4-CF3)]P[Ac5c][NMeGly(cPent)][NMeD]-Morpholide; lactam N-11) | 210 | C (A compound having a KD ratio of 0.1 or more and less than 3 is denoted as C) | C (A compound having a KD ratio of 0.1 or more and less than 3 is denoted as C)
CC[C@H](C)[C@@H]1NC(=O)[C@H](CC(C)C)N(C)C(=O)C[C@@H](C(=O)N2CCOCC2)N(C)C(=O)[C@H](C2CCCC2)N(C)C(=O)C2(CCCC2)NC(=O)[C@@H]2CCCN2C(=O)[C@H](CCc2ccc(C(F)(F)F)c(Cl)c2)NC(=O)CN(C)C(=O)[C@H](Cc2ccc(C(F)(F)F)cc2)N(CCCOC)C(=O)[C@@H]2CCN2C(=O)[C@H](C)N(C)C1=O [PP0119] ([NMeL]I[NMeA][Aze][X31][Sar][hPhe(3-Cl-4-CF3)]P[Ac5c][NMeGly(cPent)][NMeD]-Morpholide; lactam N-11) | 100 | C (A compound having a KD ratio of 0.1 or more and less than 3 is denoted as C) | C (A compound having a KD ratio of 0.1 or more and less than 3 is denoted as C)
CCCCN1C(=O)CN(C)C(=O)CN(C)C(=O)[C@H]([C@@H](C)CC)NC(=O)[C@H](CC(C)C)N(C)C(=O)C[C@@H](C(=O)N2CCOCC2)N(C)C(=O)[C@H](C2CCCC2)N(C)C(=O)C2(CCCC2)NC(=O)[C@@H]2CCCN2C(=O)[C@H](CCc2ccc(C(F)(F)F)c(Cl)c2)NC(=O)CN(C)C(=O)[C@@H]1Cc1ccc(C(F)(F)F)cc1 [PP0120] ([NMeL]I[Sar][Sar][X17][Sar][hPhe(3-Cl-4-CF3)]P[Ac5c][NMeGly(cPent)][NMeD]-Morpholide; lactam N-11) | 190 | B (a compound having 3 or more and less than 10 is denoted as B) | C (A compound having a KD ratio of 0.1 or more and less than 3 is denoted as C)
CC[C@H](C)[C@@H]1NC(=O)[C@H](CC(C)C)N(C)C(=O)C[C@@H](C(=O)N2CCOCC2)N(C)C(=O)[C@H](C2CCCC2)N(C)C(=O)C2(CCCC2)NC(=O)[C@@H]2CCCN2C(=O)[C@H](CCc2ccc(C(F)(F)F)c(Cl)c2)NC(=O)CN(C)C(=O)[C@H](Cc2ccc(C(F)(F)F)cc2)N(CC(C)C)C(=O)CN(C)C(=O)CN(C)C1=O [PP0121] ([NMeL]I[Sar][Sar][X40][Sar][hPhe(3-Cl-4-CF3)]P[Ac5c][NMeGly(cPent)][NMeD]-Morpholide; lactam N-11) | 2100 | C (A compound having a KD ratio of 0.1 or more and less than 3 is denoted as C) | C (A compound having a KD ratio of 0.1 or more and less than 3 is denoted as C)
CC[C@H](C)[C@@H]1NC(=O)[C@H](CC(C)C)N(C)C(=O)C[C@@H](C(=O)N2CCOCC2)N(C)C(=O)[C@H](C2CCCC2)N(C)C(=O)C2(CCCC2)NC(=O)[C@@H]2CCCN2C(=O)[C@H](CCc2ccc(C(F)(F)F)c(Cl)c2)NC(=O)CN(C)C(=O)[C@H](Cc2ccc(C(F)(F)F)cc2)N(CC2CC2)C(=O)CN(C)C(=O)CN(C)C1=O [PP0122] ([NMeL]I[Sar][Sar][X27][Sar][hPhe(3-Cl-4-CF3)]P[Ac5c][NMeGly(cPent)][NMeD]-Morpholide; lactam N-11) | 320 | C (A compound having a KD ratio of 0.1 or more and less than 3 is denoted as C) | C (A compound having a KD ratio of 0.1 or more and less than 3 is denoted as C)
